For data set [1], the system named is head-twitch response (HTR) in male C57BL6 mice. In words: Mouse head twitch response (HTR). It counts as in vivo. To be noted: I-2 10 mg/kg SC, M100907 0.5 mg/kg IP pretreatment. The method, then: FIG. 1. is a graph showing the effect of various doses of exemplary compound of Formula I, 1-2, on head-twitch response (HTR) in male C57BL6 mice. The mice were treated with compound I-2 (0.03-10 mg/kg, SC) by SC route (N=6 mice/dose), and the total number of head twitches were recorded over a 1 h period. Data is expressed as mean±SEM. The induction of head twitches elicited by 5-HT2A receptor agonists is believed to represent a behavioural proxy of their psychedelic effects.
Male C57BL6 mice were pretreated with the selective 5-HT2A receptor antagonist M100907 (0.5 mg/kg IP; also known as volinanserin) prior to the administration of exemplary compound of Formula I, 1-2 (10 mg/kg SC). […] Data is expressed as mean±SEM.
Male, C57BL/6J mice (body weight range 20-30 g) were dosed with the appropriate dose of test article, and following a 1-minute pre-treatment time, placed in individual observation chambers. Animals were visually assessed for the incidence head twitches continuously over a 1 hr period. […] Each head twitch was individually counted by a trained observer, and the data expressed as the mean±SEM of 6-10 mice per group. […]
The effect of various doses of exemplary compound of Formula I, 1-2, on head-twitch response (HTR) in male C57BL6 mice were measured. […] Data is expressed as mean±SEM. […]

A short description of data set [2]: In vivo pharmacokinetics in mice (IV and PO). To be noted: male C57BL/6 mice. On the procedure:
Male C57BL/6 mice (25-30 g) from Charles River Labs were acclimatized for a minimum of 5 days prior to dosing. Body weights will be recorded on the day of dosing.
Animals dosed p.o. were deprived of food overnight and fed ˜2 h following dosing.
(§1) Formulations were administered intravenously (i.v.) via the tail vein or orally (p.o.) by gavage with disposable feeding needles.
(§2) Serial blood samples were collected via tail snip. Terminal blood samples will be collected under isoflurane anesthesia by cardiac puncture.
(§3) All blood samples were transferred into K2EDTA tubes on wet ice and centrifuged within 5 min (3200×g for 5 min at 4° C.) to obtain plasma. Plasma will be stored at −80° C. until analysis.
(§4) • i. Analysis software: Phoenix® WinNonlin® 8.2 (Pharsight, Certara, Mountainview, CA) • ii. Analysis methods: non-compartmental analysis, linear up/log down trapezoidal rule • iii. PK parameters: C0, t1/2, AUC0-last. AUC0-∞, CL, Vss, MRT, tmax(po), Cmax(po), F, as appropriate

Data set [3] can be described thus: In vivo pharmacokinetics in rats (IV and PO). Conditions: male SD rats. On the procedure:
as §1, §2, §3, §4

As to `[2H]C([2H])([2H])N1CCC[C@@H]1Cc1c[nH]c2cccc(O)c12` [Compound I-2, (R)-3-((1-(methyl-d3)pyrrolidin-2-yl)methyl)-1H-indol-4-ol], in data set [1], the “effect on head-twitch response (HTR) after pretreatment with selective 5-HT2A antagonist M100907” value is reported as “completely blocked”.

Turning to `[2H]C([2H])(c1c[nH]c2cccc(OC)c12)[C@H]1CCCN1C([2H])([2H])[2H]` [Compound I-39, (R)-4-methoxy-3-((1-(methyl-d3)pyrrolidin-2-yl)methyl-d2)-1H-indole], the biotransformation after administration result is “^(a)I-39 is hydrolysed to I-44 after IV administration” in data set [2] (IV (footnote Table 5)), “^(a)1-39 is hydrolysed to I-44 after IV administration” in data set [2] (PO table (footnote Table 6 prints IV)), “^(a)I-39 is hydrolysed to I-44 after IV administration” in data set [3] (IV (footnote Table 7)) and “^(a)I-39 is hydrolysed to I-44 after oral administration” in data set [3] (oral (footnote Table 8)).
